As a reminder, the ED50 is the midpoint of the dose-response relation.

Each structure is given as a SMILES string. Where only a bound is given, the exact number is not on record here.

The subject of this experiment is Mus musculus. Description: Antiarrhythmic activity in po dosed Swiss-Webster mouse assessed as protection against chloroform-induced ventricular fibrillation administered in 4% acacia. The experiment is classed as functional. To be noted: Heart.

For `O=C(NCC1CCCCN1)c1ccccc1OCC(F)(F)F` (centres undefined), the ED50 stood at 283 µmol/kg.

For `O=C(NCC1CCCCN1)c1cccc(OCC(F)(F)F)c1` (centres undefined), the ED50 is 76 µmol/kg.

As to `O=C(NCC1CCCCN1)c1ccc(OCC(F)(F)F)cc1` (centres undefined), the ED50 was determined as 190 µmol/kg.

For `O=C(NCC1CCCCN1)c1cccc(OCC(F)(F)F)c1OCC(F)(F)F` (centres undefined), the median effective dose (ED50) came to 149 µmol/kg.

For `O=C(NCC1CCCCN1)c1ccc(OCC(F)(F)F)cc1OCC(F)(F)F` (centres undefined), the ED50 was found to be 244 µmol/kg.

Regarding `O=C(NCC1CCCCN1)c1c(OCC(F)(F)F)cccc1OCC(F)(F)F` (centres undefined), the ED50 is 271 µmol/kg.

As to `O=C(NCC1CCCCN1)c1ccc(OCC(F)(F)F)c(OCC(F)(F)F)c1` (centres undefined), the 50% effective dose (ED50) is 277 µmol/kg.

In the case of `O=C(NCC1CCCCN1)c1cc(OCC(F)(F)F)cc(OCC(F)(F)F)c1` (centres undefined), the ED50 was 388 µmol/kg.

Take `O=C(NCC1CCCCN1)c1c(OCC(F)(F)F)cc(OCC(F)(F)F)cc1OCC(F)(F)F` (centres undefined): the median effective dose (ED50) was 95 µmol/kg.

`Cc1ccc(OCC(F)(F)F)c(C(=O)NCC2CCCCN2)c1` (centres undefined): the ED50 is greater than 600 µmol/kg.

With `O=C(NCC1CCCCN1)c1cc(Cl)ccc1OCC(F)(F)F` (centres undefined), the ED50 turned out to be 230 µmol/kg.

With `O=C(NCC1CCCCN1)c1cc(F)ccc1OCC(F)(F)F` (centres undefined), the median effective dose (ED50) came out at 270 µmol/kg.

For `CC1CCCC(CNC(=O)c2cc(OCC(F)(F)F)ccc2OCC(F)(F)F)N1` (centres undefined), the ED50 was 22 µmol/kg.

Turning to `CC(NC(=O)c1cc(OCC(F)(F)F)ccc1OCC(F)(F)F)C1CCCCN1` (centres undefined), the ED50 came to 19 µmol/kg.

On to `O=C(NC1CCCNC1)c1cc(OCC(F)(F)F)ccc1OCC(F)(F)F` (centres undefined), for which the ED50 is 57 µmol/kg.

Turning to `O=C(NCC1CCCNC1)c1cc(OCC(F)(F)F)ccc1OCC(F)(F)F` (centres undefined), the ED50 was found to be 82 µmol/kg.

For `O=C(NC1CCNCC1)c1cc(OCC(F)(F)F)ccc1OCC(F)(F)F`, the ED50 came to 144 µmol/kg.

In the case of `O=C(NCC1CCNCC1)c1cc(OCC(F)(F)F)ccc1OCC(F)(F)F`, the ED50 came out at 149 µmol/kg.

On to `CN1CCCCC1CNC(=O)c1cc(OCC(F)(F)F)ccc1OCC(F)(F)F` (centres undefined), for which the ED50 amounted to 44 µmol/kg.

On to `CCN1CCCCC1CNC(=O)c1cc(OCC(F)(F)F)ccc1OCC(F)(F)F` (centres undefined), for which the ED50 was 102 µmol/kg.

For the compound `CCN(CC1CCCN1C)C(=O)c1cc(OCC(F)(F)F)ccc1OCC(F)(F)F` (centres undefined), the ED50 turned out to be 29 µmol/kg.

Consider `CCN1CCCC1CNC(=O)c1cc(OCC(F)(F)F)ccc1OCC(F)(F)F` (centres undefined), for which the ED50 stood at 70 µmol/kg.

`CC[N+]1(C)CCCCC1CNC(=O)c1cc(OCC(F)(F)F)ccc1OCC(F)(F)F` (centres undefined): the ED50 was greater than 380 µmol/kg.

For `C[N+]1(C)CCCCC1CNC(=O)c1cc(OCC(F)(F)F)ccc1OCC(F)(F)F` (centres undefined), the 50% effective dose (ED50) was greater than 395 µmol/kg.

`O=CN1CCCCC1CNC(=O)c1cc(OCC(F)(F)F)ccc1OCC(F)(F)F` (centres undefined): the ED50 is greater than 510 µmol/kg.

On to `O=C(NCC1CCc2ccccc2N1)c1cc(OCC(F)(F)F)ccc1OCC(F)(F)F` (centres undefined), for which the ED50 was greater than 450 µmol/kg.

Take `O=C(NCC1CCC2CCCCC2N1)c1cc(OCC(F)(F)F)ccc1OCC(F)(F)F` (centres undefined): the ED50 came to 27 µmol/kg.

On to `O=C(NCC1NCCc2ccccc21)c1cc(OCC(F)(F)F)ccc1OCC(F)(F)F` (centres undefined), for which the ED50 worked out at 380 µmol/kg.

`CCCCN(CC1CCCCN1)C(=O)c1cc(OCC(F)(F)F)ccc1OCC(F)(F)F` (centres undefined): the ED50 was 32 µmol/kg.

For `CN(CC1CCCCN1)C(=O)c1cc(OCC(F)(F)F)ccc1OCC(F)(F)F` (centres undefined), the ED50 came to 24 µmol/kg.

`CC1CCCC(CN(C)C(=O)c2cc(OCC(F)(F)F)ccc2OCC(F)(F)F)N1` (centres undefined): the ED50 is 9 µmol/kg.

In the case of `CCN(CC1CCCCN1)C(=O)c1cc(OCC(F)(F)F)ccc1OCC(F)(F)F` (centres undefined), the ED50 is less than 2 µmol/kg.

For `O=C(c1cc(OCC(F)(F)F)ccc1OCC(F)(F)F)N(CC1CCCCN1)C1CCCCC1` (centres undefined), the ED50 was determined as 36 µmol/kg.

For the compound `CC(C)(C)N(CC1CCCCN1)C(=O)c1cc(OCC(F)(F)F)ccc1OCC(F)(F)F` (centres undefined), the ED50 is 17 µmol/kg.

Take `O=C(c1cc(OCC(F)(F)F)ccc1OCC(F)(F)F)N1CCN2CCCCC2C1` (centres undefined): the median effective dose (ED50) is greater than 510 µmol/kg.

Take `O=C(NCC1CCCCN1)c1cc(OCC(F)(F)F)ccc1OCC(F)(F)F` (centres undefined) [FLECAINIDE ACETATE]: the ED50 came out at 48 µmol/kg.

As for `CCN(CC)CC(=O)Nc1c(C)cccc1C` [LIDOCAINE], the median effective dose (ED50) came to 495 µmol/kg.

As for `CCN(CC)CCNC(=O)c1ccc(N)cc1` [PROCAINAMIDE], the ED50 turned out to be 1030 µmol/kg.

For the compound `C=C[C@H]1CN2CC[C@H]1C[C@@H]2[C@@H](O)c1ccnc2ccc(OC)cc12` [QUINIDINE], the ED50 worked out at 217 µmol/kg.

For the origin of these results see ChEMBL document CHEMBL3272007, “Antiarrhythmics. 2. Synthesis and antiarrhythmic activity of N-(piperidylalkyl)trifluoroethoxybenzamides” (1977).
